# Results as given in US10772909B2, “System and method for insulin-mimetic of cartilage, bone, or osteochondral repair and piezoelectric composite scaffold” (New Jersey Institute of Technology, priority 2016, dated 2020).
# Assays:
# Human MSCs [1] = experiment: MSC growth on PCL scaffolds in growth medium (PicoGreen ds DNA cell number); assay type: cell-based; conditions: GM; for cell number, change from days 4 to 7: p<0.05; for cell number compared to the other groups: days 7 and 11
# Procedure: MSCs were cultured on the scaffolds in the presence of Na2WO4 (Na2WO4.2H2O, MW=329.85 g/mol; Sigma Aldrich) in the range of 0.01-50 mM to determine which concentrations supported cell growth. Before cell seeding, scaffolds were cut into 6 mm diameter disks using a biopsy punch (Integra Miltek, York, Pa.), sterilized in 100% ethanol for 20 minutes and were air dried overnight. Cryopreserved MSCs were thawed and expanded in tissue culture treated polystyrene flasks (Nunc, Thermo Fisher Scientific, Waltham, Mass., USA) in growth medium (GM) comprised of Dulbecco's Modified Eagle's Medium (DMEM, Invitrogen, Grand Island, N.Y., USA), 10% fetal bovine serum (Hyclone, Thermo Fisher Scientific) and 1% antibiotic-antimycotic (Invitrogen) at 37° C. and 5% CO2 until 70-80% confluent. Cells were trypsinized using 0.25% Trypsin-EDTA (Thermo Fisher Scientific), resuspended in GM and then seeded onto scaffolds at 3.5×10^4 cells/cm^2 and cultured for 11 days in GM alone or with Na2WO4. Na2WO4 was added to GM leading to final Na2WO4 concentrations of 0, 0.01, 0.1, 1, 10 and 50 mM. Samples (n=4) were harvested and analyzed at days 4, 7 and 11 for cell number using the PicoGreen® ds DNA assay (Life Technologies).
# MSCs of known cell number were used as a standard. Standards and samples were prepared by lysing the cells using 0.1% Triton X-100 (Sigma-Aldrich, Mo., USA). The cell lysate of samples and standards (n=4 per group) was mixed with an equal volume of Pico Green dye, which binds to the double-stranded (ds) DNA. Fluorescence intensity was measured with a microplate reader ((FLX800, Biotek Instruments, Vt., USA)) at 480 nm excitation and 520 nm emission. A standard curve of known cell number was used to determine the sample cell number.
# PBMCs = experiment: CellTiter-Blue viability assay; assay type: cell-based, human; conditions: 0.01, 0.1 and 1 mM Na2WO4; 4 days exposure
# Procedure: CellTiter-Blue Assay (Promega, Madison, Wis.) was used to assess the viability of PBMCs. Cell Titre Blue was used to measure the metabolic activity of PBMCs as a surrogate for cell number. Each experimental group was performed in triplicate in 96-well tissue culture plates. After 4 days, CellTiter-Blue reagent (20 μL/well) was added to each well. The plates were incubated and after 4 hours, the fluorescence intensity was measured with microplate reader (Synergy, HTX, BioTek, Winooski, Vt., USA) at 560/590 nm emission. Percent viability was calculated as the fluorescence reading of treated (stimulated) cells divided by untreated healthy cells, which were considered 100% viable as described in Greco et al..
# Human MSCs [2] = experiment: Chondrogenesis culture: immunostaining, confocal microscopy; assay type: cell-based; conditions: day 28
# Procedure: (§1) Chondrogenesis Culture. Cryopreserved MSCs were thawed and expanded in GM until 70-80% confluent. Cells were trypsininzed and then seeded on 6 mm diameter scaffold disks at 1.76×10^5 cells/cm^2 and cultured for 28 days in GM, chondrogenic induction medium (CCM), or CCM without insulin, according to previously published methods. CCM consisted of DMEM high glucose containing 4 mM L-glutamine (Invitrogen, Grand Island, N.Y., USA), 0.1 μM dexamethasone (Sigma-Aldrich), 0.17 mM ascorbic acid-2-phosphate (Wako Chemicals, Richmond, Va., USA), 1% ITS+(6.25 µg/mL insulin, 6.25 µg/mL transferrin, 6.25 ng/mL selenous acid, 5.35 μg/ml linoleic acid and 1.25 mg of bovine serum albumin) Premix Culture Supplement (Corning, Corning, N.Y., USA), 1× antibiotic-antimycotic, 1 mM sodium pyruvate (Sigma-Aldrich), 0.35 mM proline (Sigma-Aldrich), and 10 ng/mL recombinant human transforming growth factor-beta3 (TGF-β3, ProSpec, Israel). CCM without insulin consisted of CCM where the 1% ITS+Premix Culture Supplement was substituted with 1% stock solution (6.25 μg/ml transferrin and 6.25 ng/ml selenous acid, 5.35 μg/ml lionleic acid (Sigma-Aldrich) and 1.25 mg of bovine serum albumin (Fisher Scientific). Na2WO4 was added to all media leading to final Na2WO4 concentrations of 0, 0.01, 0.1 and 1 mM. Samples were harvested and analyzed for sulfated glycosaminoglycans (sGAG), cell number and gene expression at day 14 and 28 and for collagen type II and immunostaining at day 28.
# Immunostaining was used to observe cell morphology and collagen type II deposition at day 28. Samples were fixed using 4% paraformaldehyde for 20 minutes. Samples were permealized with 0.1% Triton-X for 15 minutes and then non-specific binding was blocked using 5% donkey serum (Sigma-Aldrich, Mo., USA) for 1 hour. Samples were incubated with mouse antihuman collagen type II antibody (EMD Millipore; Calif., USA) in 4° C. overnight. Samples were then incubated with conjugated northern light 493 secondary antibody (Donkey anti-Mouse IgG, Fisher Scientific, Rockford, Ill.) and rhodamine phalloidin (Life Technologies) for actin filament for 1 h. The nucleus was stained with 4′,6-diamidino-2-phenylindole (DAPI, Fisher Scientific). The images were taken using a confocal fluorescence microscope (Cl-si, Nikon, Japan).
# collagen type II = experiment: Collagen type II ELISA; assay type: cell-based, human; conditions: day 28
# Procedure: as §1
# Collagen type II production was quantified by enzyme-linked immunosorbent assay (ELISA) using a collagen type II detection kit (Chondrex Inc. Redmond, Wash., USA). The ELISA was conducted following the manufacturer's instructions. Briefly, samples (n=4 per group) were harvested at day 28 and washed with PBS. Collagen was digested by adding pepsin solution (0.1 mg/ml in 0.05 M acetic acid) at 4 C° for two days with gentle mixing. The digested samples were centrifuged for 3 minutes and supernatants were collected. Pancreatic elastase was added to the samples and incubated overnight at 4° C. Supernatants were then collected. The ELISA plate which was coated with collagen type II was prepared as described by the manufacturer and the absorbance at 490 nm was measured using a microplate spectrophotometer (Emax, Molecular Devices). The collagen type II production was determined relative to the standard curve.
smiles,measurement,setting,value
"[Na+].[Na+].[O]=[W](=[O])([O-])[O-] [Na2WO4, sodium tungstate]","cell number, change from days 4 to 7",Human MSCs [1]; 0.01 mM Na2WO4,significantly increased in cell numbers
same,"cell number, change from days 4 to 7",Human MSCs [1]; 0.1 mM Na2WO4,significantly increased in cell numbers
same,cell number compared to the other groups,Human MSCs [1]; 1 mM Na2WO4,significantly lower cell numbers
same,cell number compared to the other groups,Human MSCs [1]; 10 mM Na2WO4,significantly lower cell numbers
same,cell number compared to the other groups,Human MSCs [1]; 50 mM Na2WO4,significantly lower cell numbers
same,PBMC cell viability vs 0 mM,PBMCs,No significant differences in cell viability
same,collagen type II immunostaining vs 0 mM,"Human MSCs [2]; 0.01 mM Na2WO4, GM",more intense
same,collagen type II immunostaining vs 0 mM,"Human MSCs [2]; 0.1 mM Na2WO4, GM",more intense
same,collagen type II immunostaining,"Human MSCs [2]; CCM without insulin groups, except for 1 mM Na2WO4",showed collagen type II staining
same,collagen type II immunostaining vs 0 mM,"Human MSCs [2]; Na2WO4 groups, CCM",more intense collagen type II staining
same,actin filament staining as an indicator of attachment,Human MSCs [2]; all groups,intense actin filament staining
same,collagen type II production vs all other groups,"collagen type II; 0.01 mM Na2WO4, CCM, p<0.001",highest collagen type II
same,collagen type II production vs 0 mM group,"collagen type II; 0.01 mM Na2WO4, GM, p<0.05",significantly higher collagen type II
same,collagen type II production vs 0 mM and 1 mM,"collagen type II; 0.1 mM Na2WO4, CCM, p<0.001",significantly higher collagen type II production
same,collagen type II production,"collagen type II; 1 mM Na2WO4, CCM, p<0.001",lowest
same,collagen type II production,collagen type II; CCM without insulin groups,not detected
